Measured values from US9822115B2, “Nitrogen containing compounds and their use as antibacterial agents” (WOCKHARDT LIMITED, priority 2014, dated 2017).
Converted amounts (≈) assume the structure as drawn. Structures can show the parent of a compound that is named as a salt. Where two headings read alike, the source gives them in different places.

Columns and labels:
[1] = biological target: T1, Class A beta-lactamase, K. pneumoniae ATCC 700603 (SHV 18) (Klebsiella pneumoniae, UniProt P0AD64, E235K/G234A/R39S); experiment: biochemical
T1 construct: preincubated mixture of crude enzyme and the agents; endogenous in cells; host or cells: K. pneumoniae ATCC 700603
Procedure: (§1) Determination of enzyme inhibition activity: Concentration of the inhibitor required to inhibit 50% of enzymatic activity was measured by adding a chromogenic substrate, Nitrocefin (100 uM, 5 min) to the preincubated mixture of crude enzyme and the agents (37° C., 10 min). Absorbance was measured at 485 nm by UV-spectrophotometer. The IC50 was calculated by plotting absorbance against concentration through Sigmoidal dose response curve using Graph Pad software.
(§2) The enzyme inhibition was expressed as IC50.

[2] = test system: K. pneomoniae S48 (NDM, SHV, TEM); experiment: Antibacterial activity, MIC by agar dilution (CLSI); type: cell-based, K. pneumoniae; details: Klebsiella pneumoniae
Procedure: (§3) The biological activity of representative compounds according to the invention against various bacterial strains was investigated. In a typical study, overnight grown bacterial cultures were diluted appropriately and inoculated on the agar media containing doubling dilutions of the test compounds. Observations for growth or no growth was performed after 16-20 hours of incubation at 35±2° C. in the ambient air. The overall procedure was performed as per Clinical and Laboratory Standards Institute (CLSI) recommendations, (Clinical and Laboratory Standards Institute (CLSI), Performance Standards for Antimicrobial Susceptibility Testing, 20th Informational Supplement, M07-A9, Volume 32, No. 2, 2012). Molten Mueller Hinton Agar (BD, USA) containing serial dilutions of each antibacterial agent were poured on to the plates and allowed to solidify. Appropriate suspensions from the freshly grown cultures were prepared in normal saline so that about 10^4 CFU/spot of the organism was delivered on to the drug containing agar plates using automated multipoint inoculator (Mast, UK). The plates were incubated in Biochemical oxygen demand (BOD) incubator at 37° C. for 18 hours and then examined for growth.
(§4) The strains selected for study included E. coli NCTC 13353 producing CTX-M15 and OXA-1 beta-lactamase enzymes; K. pneumoniae H521 producing KPC, SHV, TEM beta-lactamase enzymes; and K. pneumoniae S48 producing NDM, SHV, TEM beta-lactamase enzymes. The activities are expressed as Minimum Inhibitory Concentrations (MICs) (mcg/ml).

[3] = test system: K. pneumoniae H521 (KPC, SHV, TEM); experiment: as above; type: cell-based; details: Klebsiella pneumoniae
Procedure: as §3, §4

[4] = test system: E. coli NCTC 13353 (CTX-M15, OXA-1); experiment: as above; type: cell-based; details: Escherichia coli
Procedure: as §3
as §4, with “Table 2 details the antibacterial activity of representative compounds according to invention, against various Multi Drug Resistant (MDR) Gram-negative bacterial strains. The strains” for “The strains”

[5] = biological target: T2, Class D beta-lactamase, A. baumannii NCTC 13301 (OXA 23) (Acinetobacter baumannii, UniProt Q9L4P2); experiment: Beta-lactamase enzyme inhibition (nitrocefin, crude enzyme); type: biochemical
T2 construct: preincubated mixture of crude enzyme and the agents; endogenous in cells; host or cells: A. baumannii NCTC 13301
Procedure: as §1, §2

[6] = Class D A. baumannii NCTC 13301 (OXA 23), read-out: Beta-lactamase enzyme inhibition IC50
[7] = 18 h, Table 2, K. pneomoniae S48 (NDM, SHV, TEM), read-out: MIC
[8] = 18 h, Table 2, K. pneumoniae H521 (KPC, SHV, TEM), read-out: MIC
[9] = NCTC13353, 18 h, Table 2, E. Coli NCTC 13353 (CTX-M15, OXA-1), read-out: MIC

T2 sequence (Q9L4P2 18-273): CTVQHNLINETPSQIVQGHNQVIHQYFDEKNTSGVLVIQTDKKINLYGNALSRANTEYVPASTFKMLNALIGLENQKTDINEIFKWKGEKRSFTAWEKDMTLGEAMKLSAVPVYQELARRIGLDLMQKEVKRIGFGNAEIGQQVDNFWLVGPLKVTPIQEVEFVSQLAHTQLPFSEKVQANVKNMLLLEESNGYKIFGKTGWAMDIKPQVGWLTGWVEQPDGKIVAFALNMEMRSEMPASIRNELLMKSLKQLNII
T1 sequence (P0AD64 22-286 R39S/G234A/E235K): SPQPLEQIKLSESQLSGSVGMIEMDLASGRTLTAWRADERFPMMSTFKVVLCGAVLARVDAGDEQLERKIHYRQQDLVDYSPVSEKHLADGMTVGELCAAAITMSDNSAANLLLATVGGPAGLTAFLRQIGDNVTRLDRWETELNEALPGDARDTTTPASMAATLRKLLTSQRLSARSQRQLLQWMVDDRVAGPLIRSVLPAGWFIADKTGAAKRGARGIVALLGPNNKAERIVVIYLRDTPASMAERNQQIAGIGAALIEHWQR

Compound	IC50 [1]	IC50 [5, 6]	MIC [2, 7]	MIC [3, 8]	MIC [4, 9]	further results
NC(=O)[C@@H]1CC[C@@H]2CN1C(=O)N2OS(=O)(=O)O [Avibactam, avibactam, reference compound]	98 nM					
O=C(Cc1ccccc1)NNC(=O)[C@@H]1CC[C@@H]2CN1C(=O)N2OS(=O)(=O)O [Example 4]	19 nM	416 nM				MIC ([2]; 18 h): 2 µg/mL (≈ 5.02 µM); MIC ([3]; 18 h): > 32 µg/mL; MIC ([4]; NCTC13353, 18 h): 1 µg/mL (≈ 2.51 µM)
O=C(CCc1ccccc1)NNC(=O)[C@@H]1CC[C@@H]2CN1C(=O)N2OS(=O)(=O)O [Example 5]	9 nM	600 nM	8 µg/mL (≈ 19.4 µM)	> 32 µg/mL	8 µg/mL (≈ 19.4 µM)	
O=C(CCCc1ccccc1)NNC(=O)[C@@H]1CC[C@@H]2CN1C(=O)N2OS(=O)(=O)O [Example 6, sodium salt of (2S,5R)-sulfuric acid mono-[2-(N′-(4-phenyl-butanoyl)-hydrazinocarbonyl)-7-oxo-1,6-diaza-bicylo[3.2.1]oct-6-yl]ester]		207 nM	32 µg/mL	> 32 µg/mL	16 µg/mL	
O=C(Cc1ccccn1)NNC(=O)[C@@H]1CC[C@@H]2CN1C(=O)N2OS(=O)(=O)O [Example 8, Sodium salt of (2S,5R)-Sulfuric acid mono-[2-(N′-(pyridine-2-yl-acetyl)-hydrazinocarbonyl)-7-oxo-1,6-diaza-bicyclo[3.2.1]oct-6-yl] ester]	25 nM	466 nM				MIC ([2]; Table 2, K. pneomoniae S48 (NDM, SHV, TEM), read-out: MIC): 0.5 µg/mL; MIC ([3]; Table 2, K. pneumoniae H521 (KPC, SHV, TEM), read-out: MIC): 2 µg/mL; MIC ([4]; NCTC13353, Table 2, E. Coli NCTC 13353 (CTX-M15, OXA-1), read-out: MIC): 0.5 µg/mL
O=C(Cc1ccc(Cl)cc1)NNC(=O)[C@@H]1CC[C@@H]2CN1C(=O)N2OS(=O)(=O)O [Example 9, sodium salt of (2S,5R)-sulfuric acid mono-[2-(N′-(4-chlorophenyl-acetyl)-hydrazinocarbonyl)-7-oxo-1,6-diaza-bicyclo[3.2.1]oct-6-yl]ester]		173 nM				MIC ([2]; 18 h): 1 µg/mL; MIC ([3]; 18 h): 4 µg/mL; MIC ([4]; NCTC13353, 18 h): 1 µg/mL
N#Cc1ccc(CC(=O)NNC(=O)[C@@H]2CC[C@@H]3CN2C(=O)N3OS(=O)(=O)O)cc1 [Example 10, sodium salt of (2S,5R)-sulfuric acid mono-[2-(N′-(4-cyanophenyl-acetyl)-hydrazinocarbonyl)-7-oxo-1,6-diaza-bicyclo[3.2.1]oct-6-yl]ester]	162 nM	805 nM	1 µg/mL	4 µg/mL	1 µg/mL	
CN(C)c1ccc(CC(=O)NNC(=O)[C@@H]2CC[C@@H]3CN2C(=O)N3OS(=O)(=O)O)cc1 [Example 13, sodium salt of (2S,5R)-sulfuric acid mono-[2-(N′-(4-N,N-dimethylaminophenyl-acetyl)-hydrazinocarbonyl)-7-oxo-1,6-diaza-bicyclo[3.2.1]oct-6-yl]ester]	62 nM	629 nM	8 µg/mL	> 32 µg/mL	8 µg/mL	
COc1ccc(CC(=O)NNC(=O)[C@@H]2CC[C@@H]3CN2C(=O)N3OS(=O)(=O)O)cc1 [Example 14, sodium salt of (2S,5R)-sulfuric acid mono-[2-(N′-(4-methoxyphenyl-acetyl)-hydrazinocarbonyl)-7-oxo-1,6-diaza-bicyclo[3.2.1]oct-6-yl]ester]		105 nM	1 µg/mL	8 µg/mL	1 µg/mL	
CCOc1ccccc1CC(=O)NNC(=O)[C@@H]1CC[C@@H]2CN1C(=O)N2OS(=O)(=O)O [Example 15, sodium salt of (2S,5R)-sulfuric acid mono-[2-(N′-(2-ethoxyphenyl-acetyl)-hydrazinocarbonyl)-7-oxo-1,6-diaza-bicyclo[3.2.1]oct-6-yl]ester]	49 nM	210 nM	> 32 µg/mL	> 32 µg/mL	> 32 µg/mL	
O=C(Cc1ccc(O)cc1F)NNC(=O)[C@@H]1CC[C@@H]2CN1C(=O)N2OS(=O)(=O)O [Example 18, sodium salt of (2S,5R)-sulfuric acid mono-[2-(N′-(2-fluoro-4-hydroxyphenyl-acetyl)-hydrazinocarbonyl)-7-oxo-1,6-diaza-bicyclo[3.2.1]oct-6-yl]ester]	154 nM	146 nM	0.5 µg/mL	2 µg/mL	0.5 µg/mL	
O=C(Cc1ccccc1O)NNC(=O)[C@@H]1CC[C@@H]2CN1C(=O)N2OS(=O)(=O)O [Example 19, sodium salt of (2S,5R)-sulfuric acid mono-[2-(N′-(2-hydroxyphenyl-acetyl)-hydrazinocarbonyl)-7-oxo-1,6-diaza-bicyclo[3.2.1]oct-6-yl]ester]	13 nM	677 nM	2 µg/mL	2 µg/mL	1 µg/mL	
O=C(Cc1cccc(O)c1)NNC(=O)[C@@H]1CC[C@@H]2CN1C(=O)N2OS(=O)(=O)O [Example 20, sodium salt of (2S,5R)-sulfuric acid mono-[2-(N′-(3-hydroxyphenyl-acetyl)-hydrazinocarbonyl)-7-oxo-1,6-diaza-bicyclo[3.2.1]oct-6-yl]ester]	12 nM	249 nM				MIC ([2]; 18 h): 0.5 µg/mL; MIC ([3]; 18 h): 1 µg/mL; MIC ([4]; NCTC13353, 18 h): 0.5 µg/mL
CC(C)(C)C(=O)Oc1ccc(CC(=O)NNC(=O)[C@@H]2CC[C@@H]3CN2C(=O)N3OS(=O)(=O)O)cc1 [Example 22, sodium salt of 2,2-dimethyl-propionic acid 4-{2-oxo-2-[N′-((2S,5R)-7-oxo-6-sulphooxy-1,6-diaza-bicyclo[3.2.1]octane-2-carbonyl)-hydrazino]ethyl}-phenyl ester]	25 nM	973 nM	32 µg/mL	32 µg/mL	16 µg/mL	
CC(C)(C)OC(=O)CC(=O)Oc1ccc(CC(=O)NNC(=O)[C@@H]2CC[C@@H]3CN2C(=O)N3OS(=O)(=O)O)cc1 [Example 26, sodium salt of (2S,5R)-malonic acid tert-butyl ester 4-{2-oxo-2-[N′-(7-oxo-6-sulphooxy-1,6-diaza-bicyclo[3.2.1]octane-2-carbonyl)-hydrazino]ethyl}-phenyl ester]	25 nM	370 nM	2 µg/mL	4 µg/mL	2 µg/mL	
O=C(Cc1ccc(OC(=O)NC2CCCCC2)cc1)NNC(=O)[C@@H]1CC[C@@H]2CN1C(=O)N2OS(=O)(=O)O [Example 28, sodium salt of (2S,5R)-cyclohexyl-carbamic acid 4-{2-oxo-2-[N′-(7-oxo-6-sulphooxy-1,6-diaza-bicyclo[3.2.1]octane-2-carbonyl)-hydrazino]ethyl}-phenyl ester]	8 nM					MIC ([2]; 18 h): 16 µg/mL; MIC ([3]; 18 h): 32 µg/mL; MIC ([4]; NCTC13353, 18 h): 8 µg/mL; IC50 [5]: 243 nM
CC(C)[C@H](NC(=O)Oc1ccc(CC(=O)NNC(=O)[C@@H]2CC[C@@H]3CN2C(=O)N3OS(=O)(=O)O)cc1)C(=O)OC(C)(C)C [Example 29, sodium salt of (S)-3-methyl-2-(4-{2-oxo-2-[N′-((2S,5R)-7-oxo-6-sulphooxy-1,6-diaza-bicyclo[3.2.1]-octane-2-carbonyl)-hydrazino]-ethyl}-phenoxycarbonylamino)-butyric acid tert-butyl ester]	327 nM					MIC [2]: 4 µg/mL; MIC [3]: 16 µg/mL; MIC ([4]; NCTC13353): 4 µg/mL; IC50 [5]: 2850 nM
